pIC50: −log10 of the molar value.

The nature of data set [1]: In vivo pharmacokinetic study, plasma. Also on record: species or system male CD-1 mice. To be noted: mice. How it is done:
The experiments were performed in agreement with the Italian Law D. L.vo 4 marzo 2014, n. 26. The treatments involved male CD-1 mice and a unique number on the tail identified each animal. Mice were housed, in groups of four, in cages suitable for the species. After 5 days of adaptation to the local housing conditions, animals were housed in a single, exclusive, air-conditioned room to provide a minimum of 15 air changes/hour. The environmental controls were set to maintain the temperature at around 22°C and the relative humidity within the range 50 to 60%, along with an approximate 12:12 h light/dark cycle automatically controlled. Food (Mucedola Standard GLP diet) and water were available ad libitum throughout the entire duration of the study. All animals were weighted on the day of the treatment.
Mice (n = 4/time point) received an intraperitoneal administration (i.p., 10 mL/kg) of RC-106 at 10 mg/kg. CD-1 male mice were exsanguinated under anesthesia (isoflurane) from the aorta at the following time points: 5, 10, 30, 120, 240, and 480 min. Blood samples were collected in tubes containing heparin, gently mixed and immediately placed on ice. Afterward, they have been centrifuged (3500 × g, at 4°C for 15 min), the obtained plasma has been collected and transferred to individually labeled tubes and frozen at -20°C until the analysis. Plasma samples were used for quantification of RC-106. Pancreas was taken by surgical resection after 20 min from the last treatment, washed in saline, dried on paper, weighted and frozen at -20°C. The organ was homogenized using a Velp OV5 homogenizer with 20 mM ammonium formiate buffer in a ratio of 1 g of tissue per 10 mL of buffer.
20 mg/mL stock solution (s.s.) of RC-106 was prepared by dissolving the compound in DMSO. 1 mL of 5% Tween80 in H2O was slowly added to 500 μL of s.s. under stirring. Then 8.5 mL of water was gently spiked to obtain the 1 mg/mL formulation of RC-106.
Standard curves of RC-106 were prepared for plasma and pancreas homogenate, and analyzed together with each QC and unknown sample set. For the PK and pancreas distribution sample analysis, plasma and pancreas homogenate samples (50 μL) were spiked in 200 μL of IS in MeOH (0.1 μg/mL of RC-33), followed by 2 min vortex mixing. Samples were centrifuged and transferred in UFLC vials. 5 μL aliquots of the collected samples were injected into the LC-MS/MS system. Standard calibration graphs were constructed by linear least-squares regression analysis on the analyte/IS area ratio plotted against sample concentration. Calibration ranges were from 5 to 1000 ng/mL for plasma, and from 5 to 500 ng/mL for pancreas homogenate. Accuracy values were determined in triplicates at three different concentrations (high, medium, and low) in the range of linearity of the calibration curves.
Analyses were acquired on a Shimadzu AC20 UFLC system interfaced with an API 3200 Triple Quadrupole detector (AB Sciex). Data acquisition and control were performed using the Analyst^TM 6.1 (Applied Biosystems) Software. A Phenomenex Gemini-NX C18 (50 mm × 2 mm, 5 μm) column was selected to carry out the analytical evaluations. A gradient method was set up (Supplementary Table S1) and it provided the employment of water and methanol, both containing 0.1% of formic acid, at a flow rate of 0.3 mL/min. The LC eluate was directly introduced into the MS interface using the ESI in the positive ion mode. The MRM transitions m/z 181.2 were tracked (Supplementary Table S2).

For data set [2], the system named is Panc-1, Capan-1, and Capan-2. Put plainly: MTS assay, all cell lines tested. It counts as cell-based. To be noted: 24, 48, and 72 h exposure. How it is done:
Pancreatic adenocarcinoma Panc-1, Capan-1, and Capan-2, cell lines were purchased by the ATCC. All cell lines were grown in culture medium composed of DMEM/Ham’s F12 (1:1; Euroclone) supplemented with fetal calf serum (10%; Euroclone), glutamine (2 mM; Euroclone), and insulin (10 μg/mL; Sigma-Aldrich, St. Louis, MO, United States). All experiments were performed on cells in the exponential growth phase and checked periodically for mycoplasma contamination by MycoAlert^TM Mycoplasma Detection Kit (Lonza, Basel, Switzerland).
Cytotoxicity was assayed using CellTiter 96® AQueous One Solution Cell Proliferation Assay (Promega, Milan, Italy). Cells were seeded onto a 96-well plate at a density of 3 × 10^3 cells per well. Cell lines were exposed to increasing concentrations of the drug, ranging from 0.1 to 100 μM. The effect of the drug was evaluated after 24, 48, and 72 h of continued exposure. Two independent experiments were performed in octuplicate. The OD of treated and untreated cells was determined at a wavelength of 490 nm using a […].
Dose response curves were created by Excel software. IC50 values were determined graphically from the plot.

Data set [3] deals with Panc-1 spheroids. Put plainly: Analysis of morphological parameters of 3D tumor spheroids. It counts as cell-based. To be noted: 50 μM, 48 h. Here is the method:
Spheroids were obtained as previously described ([Zanoni et al., 2016]). Briefly, a rotatory cell culture system RCCS (Synthecon Inc., Houston, TX, United States) was used. The rotary systems were placed inside a humidified 37°C, 5% CO2 incubator and all procedures were performed in sterile conditions. Single cell suspensions of about 1 × 10^6 cells/ml of Panc-1 were placed in the 50 mL rotating chamber at an initial speed of 12 rpm. Speed was increased as cells formed aggregates to avoid sedimentation. The culture medium was changed every 4 days and tumor spheroids with an equivalent diameter ranging from about 500–1300 μm were obtained in around 15 days. After formation, spheroids were transferred into a 96-well low-attachment culture plates (Corning Inc., Corning, NY, United States; one spheroid/well), containing 100 μL of fresh culture medium per well.
The analysis of morphological parameters were performed as previously described ([Piccinini et al., 2017]). Briefly, an inverted Olympus IX51 microscope (Olympus Corporation, Tokyo, Japan), equipped with a Nikon Digital Sight DS-Vi1 camera (CCD vision sensor, square pixels of 4.4 μm side length, 1600 × 1200 pixel resolution, 8-bit gray level; Nikon Instruments, Spa. Florence, Italy) was used to take images and for morphological analyses. […]

Where [4] appears, read: male, CD-1, mouse, plasma, ip, 10 mg/kg.

As a reminder, the Cmax is the peak of the concentration-time curve. The Tmax is the time at which the peak concentration occurs. What is called pIC50 is the IC50 on a negative log10 scale, so that one unit is a factor of ten. A lower pIC50 goes with a large IC50. Regarding `C/C(=C\CN1CCC(Cc2ccccc2)CC1)c1ccc2ccccc2c1` [RC-106, (E)-4-benzyl-1-(3-(naphthalen-2-yl)but-2-en-1-yl)piperidine], in data set [1] (setting [4]), the Cmax was 973 ng/mL and the time to peak (Tmax) was 5 min. Moreover, the AUC(0-t) in data set [1] (male, CD-1, mouse, plasma, ip, 10 mg/kg, i.p., 10 mg/kg, read-out: AUC0-t, plasma (converted)) is 1130 ng·h/mL. The concentration at 5 min in data set [1] (male, CD-1, mouse, plasma, ip, 5 min after i.p. 10 mg/kg, read-out: plasma C) amounted to 973 ng/mL. In addition, the concentration at 10 min in data set [1] (male, CD-1, mouse, plasma, ip, 10 min after i.p. 10 mg/kg, read-out: plasma C) turned out to be 884 ng/mL. The concentration at 30 min in data set [1] (male, CD-1, mouse, plasma, ip, 30 min after i.p. 10 mg/kg, read-out: plasma C) amounted to 361 ng/mL. Further, the concentration at 120 min in data set [1] (male, CD-1, mouse, plasma, ip, 120 min after i.p. 10 mg/kg, read-out: plasma C) stood at 134 ng/mL. The concentration at 240 min in data set [1] (male, CD-1, mouse, plasma, ip, 240 min after i.p. 10 mg/kg, read-out: plasma C) is 76 ng/mL. Further, the concentration at 480 min in data set [1] (male, CD-1, mouse, plasma, ip, 480 min after i.p. 10 mg/kg, read-out: plasma C) stood at 38 ng/mL. For the same compound, the half-life in data set [1] (male, CD-1, mouse, plasma, ip, i.p., 10 mg/kg, read-out: t1/2, plasma) was determined as 3.37 h. For the same compound, in data set [1] (i.p., 10 mg/kg), the “AUC0-t, plasma” value was found to be 67987 ng·min/mL and the “Cmax, plasma” value came out at 973 ± 167 ng/mL. In data set [2], this compound showed a pIC50 of 4.24 to 4.48. In addition, the “3D morphological parameters of spheroids” value in data set [3] was “complete disaggregation of spheroid organization and cytoarchitecture”.

The values are drawn from publication PMC6530361, “Anti-tumor Efficacy Assessment of the Sigma Receptor Pan Modulator RC-106. A Promising Therapeutic Tool for Pancreatic Cancer” (Frontiers in Pharmacology, 2019).
